Test results as given in paper PMC6037779, “Repurposing drugs to target the malaria parasite unfolding protein response” (Scientific Reports, 2018).

Key:
PfGRP78-NBD wt = target: T1, PfGRP78-NBD wt (Plasmodium falciparum, UniProt Q05866); test: biochemical; assay type: binding
T1 construct: His-tag (pET28-MHL, TEV site) (N, cleaved yes); made in house; host or cells: E. coli BL21(DE3)
Method: (§1) To quantify the binding affinities of PfGRP78-NBD for the selected compounds, dissociation constants (Kd) were determined by surface plasmon resonance (SPR). […] Purified PfGRP78-FL, PfGRP78-NBD wild-type and mutant, and human GRP78-NBD were immobilized on a CM5 sensorchip using NHS/EDC coupling following the manufacturer protocol to a level of <10,000 RUs, a reference surfaces without immobilized proteins served as a control for nonspecific binding and refractive index changes. […] The running buffer was 10 mM HEPES, pH 7.4, 150 mM NaCl, 0.005% P20, 1% DMSO and 2 mM MgCl2. Buffer only injections were used as blanks. The Biacore responses recorded during the 30 seconds of the injection were used to estimate the association constant (kon) and the 300 seconds after the injection were used to estimate the dissociation constant (koff). All dissociation and kinetic constants were estimated using double subtracted sensorgrams[40] using BiaEvaluation Software (GE Healthcare). All the reported parasite dissociation constants (Kd) were estimated with affinity analysis, and all the reported human Kds were calculated from kinetic constants.

PfGRP78-NBD mut (Y39F) = target: T2, PfGRP78-NBD mut (Y39F) (Plasmodium falciparum, UniProt Q05866, Y39F); test: SPR (Biacore) binding to PfGRP78-NBD Y39F mutant; settings: ± standard error, 25 °C
T2 construct: His-tag (pET28-MHL, TEV site) (N, cleaved yes); made in house; host or cells: E. coli BL21(DE3)
Method: To quantify the binding affinities of PfGRP78-NBD for the selected compounds, dissociation constants (Kd) were determined by surface plasmon resonance (SPR). […] Purified PfGRP78-FL, PfGRP78-NBD wild-type and mutant, and human GRP78-NBD were immobilized on a CM5 sensorchip using NHS/EDC coupling following the manufacturer protocol to a level of <10,000 RUs, a reference surfaces without immobilized proteins served as a control for nonspecific binding and refractive index changes. Seven different concentrations of the ligands between 0.4 nM to 1 mM, were injected in triplicate over the sensor chip at 30 µL/min in random order. The running buffer was 10 mM HEPES, pH 7.4, 150 mM NaCl, 0.005% P20, 1% DMSO and 2 mM MgCl2. Buffer only injections were used as blanks. The Biacore responses recorded during the 30 seconds of the injection were used to estimate the association constant (kon) and the 300 seconds after the injection were used to estimate the dissociation constant (koff). All dissociation and kinetic constants were estimated using double subtracted sensorgrams[40] using BiaEvaluation Software (GE Healthcare). All the reported parasite dissociation constants (Kd) were estimated with affinity analysis, and all the reported human Kds were calculated from kinetic constants.

huGRP78-NBD = target: T3, huGRP78-NBD (Homo sapiens, UniProt P11021); test: SPR (Biacore) binding to human GRP78-NBD; settings: ± standard error; calculated from kinetic constants; 25 °C; read-out: affinity constant (Kd) determined by SPR, huGRP78-NBD
T3 construct: PfGRP78-NBD wild type and mutant, and human GRP78-NBD were buffered in 25 mM hepes pH 7.5
Method: as §1

Plasmodium falciparum W2 = test: In vitro growth inhibition assay (SYBR Green I), strain W2; assay type: cell-based; settings: Plasmodium falciparum, W2; chloroquine-resistant strain; 72 hours; average of three ± SD; read-out: EC50, growth inhibition, P. falciparum W2
Method: A major goal of our study was to evaluate the drug target potential of P. falciparum GRP78, thus we evaluated the effect of the chaperone inhibition on the malaria parasite. Our approach took advantage of several GRP78 inhibitors (Fig. 3a) previously characterized against human cancer cell lines, which were commercially available[20],[24]–[27]. These compounds were tested against two different parasite strains with opposite sensitivity towards the antimalarial drug chloroquine, 3D7 (sensitive) and W2 (resistant). […] A synchronized P. falciparum culture, with over 80% ring forms, was used in the growth inhibition assay. Each strain was assayed at 0.5% parasitaemia and 1.5% hematocrit. A 190 µL aliquot of parasite culture was dispensed per well to microplates that were pre-dispensed with the compounds at various dilutions. […] Dilutions of GRP78 inhibitors and DHA were prepared in water with a final concentration of DMSO below 0.05% (v/v). […] After incubation, the plates were subject to a freeze-thaw cycle (−80 °C) and the parasite growth was quantified by the SYBR Green I method as previously described. Briefly, 100 µl of homogenized parasite culture was transferred into 96-well black plates. 100 µl of SYBR Green lysis buffer (2x SYBR Green I, 100 mM Tris-HCl pH 7.5, 10 mM EDTA, 0.016% Saponin and 1.6% Triton X-100) were added to each well. The plates were incubated at room temperature in darkness for 1 hour.
Growth inhibition experiments were conducted at least three times per compound. […] The statistical analysis was performed with the software Prism 7 (GraphPad Software, San Diego, CA).

PfGRP78-NBD = target: T4, PfGRP78-NBD (Plasmodium falciparum, UniProt Q05866); test: DSF thermal shift, PfGRP78-NBD; assay type: binding; settings: compound 0.5 mM; shifts above or below 1 °C significant
T4 construct: His-tag (pET28-MHL, TEV site) (N, cleaved yes); made in house; host or cells: E. coli BL21(DE3)
Method: The Plasmodium and human GRP78 NBD differences were further characterized by measuring their interaction with ATP, ADP, and several compounds referenced in the literature as GRP78 inhibitors (Fig. 3a). Initially, their binding was determined using a DSF (Differential Scanning Fluorimetry) assay. In this assay, an interaction between the chaperone and a compound was measured as a change in the protein’s melting temperature (Tm), by subtracting the Tm of the protein by itself to the melting value of the protein in the presence of the compound. Differences above or below 1 °C between the melting temperatures (ΔTm) were considered indicative of a protein-compound interaction. As expected, the Plasmodium GRP78 chaperone interacted with both ATP and ADP. Four of the six compounds tested had significant effects on protein thermal stability (Fig. 3b).
DSF screening was carried out using a CFX96 Touch Real-Time PCR Detection System (BioRad, California). The PfGRP78-FL, PfGRP78-NBD wild type and mutant, and human GRP78-NBD were buffered in 25 mM hepes pH 7.5, 250 mM NaCl and assayed in a 96-well format. […]. The concentration was optimized for each protein to avoid saturation of the fluorescence detector. The GRP78 inhibitors were used at a final concentration of 0.5 mM. SYPRO Orange (Life Technologies, USA) was added as a fluorescence probe in a dilution of 1:1000. The experiments were conducted between 18 °C to 90 °C at a heating rate of 1 °C per minute. The recorded fluorescence reads were fitted to the Boltzmann sigmoid function using DMAN software. The inflection point of each fitted curve is defined as the melting temperature (Tm). The observed temperature shift, ΔTm, was recorded as the difference between Tm of the protein with ligand minus Tm of the protein without ligand. Thermal shifts above or below 1 °C were considered significant.

T2 sequence (Q05866 26-404 Y39F): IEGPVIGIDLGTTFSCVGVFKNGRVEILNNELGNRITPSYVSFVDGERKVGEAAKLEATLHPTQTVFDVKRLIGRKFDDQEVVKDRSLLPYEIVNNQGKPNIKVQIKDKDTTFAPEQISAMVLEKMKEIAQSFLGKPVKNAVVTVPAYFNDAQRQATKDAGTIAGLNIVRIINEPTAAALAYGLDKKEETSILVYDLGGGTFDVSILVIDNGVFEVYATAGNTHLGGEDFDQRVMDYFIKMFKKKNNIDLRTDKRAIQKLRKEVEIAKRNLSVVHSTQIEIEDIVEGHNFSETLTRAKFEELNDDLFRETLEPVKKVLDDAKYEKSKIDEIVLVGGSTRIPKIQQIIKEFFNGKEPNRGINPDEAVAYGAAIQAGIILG
T3 sequence (P11021 26-407 limits assumed): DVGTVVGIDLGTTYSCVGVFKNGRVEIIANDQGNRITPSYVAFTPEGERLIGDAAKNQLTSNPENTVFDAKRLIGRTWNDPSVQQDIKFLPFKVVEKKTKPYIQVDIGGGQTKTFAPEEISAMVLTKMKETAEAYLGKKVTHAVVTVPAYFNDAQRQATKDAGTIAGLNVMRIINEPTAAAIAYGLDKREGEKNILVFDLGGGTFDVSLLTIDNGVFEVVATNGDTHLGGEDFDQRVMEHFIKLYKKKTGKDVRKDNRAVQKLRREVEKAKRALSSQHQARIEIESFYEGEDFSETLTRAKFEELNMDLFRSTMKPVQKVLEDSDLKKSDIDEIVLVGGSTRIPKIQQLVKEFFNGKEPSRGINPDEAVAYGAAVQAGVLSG
T1 sequence (Q05866 26-404): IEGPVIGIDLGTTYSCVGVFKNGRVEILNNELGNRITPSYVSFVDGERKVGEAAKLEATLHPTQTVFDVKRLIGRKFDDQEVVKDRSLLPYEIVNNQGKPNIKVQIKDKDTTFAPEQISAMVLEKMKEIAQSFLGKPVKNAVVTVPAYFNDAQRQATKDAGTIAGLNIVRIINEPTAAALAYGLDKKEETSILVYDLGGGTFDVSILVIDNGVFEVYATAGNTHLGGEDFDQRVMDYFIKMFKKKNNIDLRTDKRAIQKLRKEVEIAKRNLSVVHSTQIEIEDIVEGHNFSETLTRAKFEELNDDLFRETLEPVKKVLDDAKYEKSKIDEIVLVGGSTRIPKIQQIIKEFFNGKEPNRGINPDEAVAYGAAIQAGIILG
T4 sequence (Q05866 26-404): as above

In the case of `COc1ccc(-c2nc(-c3cc(C(F)(F)F)cc(C(F)(F)F)c3)n(Cc3ccc(C(N)=O)cc3)c2-c2ccc(OC)cc2)cc1` [Apoptozole], the Kd (PfGRP78-NBD wt) is reported as 4.27 ± 0.86 µM, the “affinity constant (Kd) determined by SPR, PfGRP78-NBD mut” value (PfGRP78-NBD mut (Y39F)) is reported as “N.B” and the Kd (huGRP78-NBD) is reported as 6.9 ± 0.33 µM. The EC50 (Plasmodium falciparum W2) was 4.5 ± 0.4 µM and the “DSF effect on thermal stability of PfGRP78-NBD” value (PfGRP78-NBD) was “increased the thermal stability”.
